*1 amine or outer side, *2 acyl side, *3 side chain or, on linkers, in order; H or OH if unused. Where a SMILES comes first, the peptide text is derived from it. Bridges are numbered along the chain shown (N, C = ends). Roman numbers before positions name the chains, in order. [ ]: non-standard residue; d: D form. Actinocin(9to1) = Cc1c2oc3c(C)ccc(C(=O)[*:1])c3nc-2c(C(=O)[*:2])c(N)c1=O; NMeV = CN[C@H](C(=O)O)C(C)C; Sar = CNCC(=O)O
What was measured:
HeLa cell [1] = test: Cytotoxicity on human cultured cancer cells, relative survival rate (Evaluation 7); type: cell-based; conditions: control
Procedure: HeLa cells were cultured in a 96-well plate using Dulbecco's Modified Eagle's Medium (DHEM) under the culture conditions of 5% carbon dioxide and at 37° C. The compound (8b) (final concentration 50 μM), the compound (8f) (final concentration 50 μM), DMSO (final concentration 0.25%), Actinomycin D (final concentration 5 μg/ml) or Nocodazole (final concentration 100 ng/ml) was added 0 (48-hr compound treated sample), 12 (36-hr compound treated sample), 24 (24-hr compound treated sample), 36 (12-hr compound treated sample), and 48 (0-hr compound treated sample) hours after the culture was started. All of the samples were measured for living cell counts 48 hours after the culture was started with a cell counting kit (DOJINDO LABORATORIES), and a measured value of each-time compound treated-sample was divided by the measured value of 0-time compound treated sample to calculate a relative survival rate.
In addition, a transcription inhibitor Actinomycin D and a tubulin polymerization inhibitor Nocodazole were used as controls of the compounds which had cytotoxicity (induces apoptosis). DMSO is a solvent in which the compound (8b) or the compound (8f) was dissolved, and used as a control to observe the affect of the solvent on the cells.

E. coli (DH5a strain) = test: E. coli growth inhibiting activity (Evaluation 5); type: cell-based
Procedure: The compound (6a) or the compound (7) (final concentration 10 μM or 100 μM), 50% ethanol (final concentration 0.05% or 0.5%), or ampicillin (final concentration 50 μg/ml) was added to LB medium in which E. coli (DH5a strain) was added to carry out shaking culture at 37° C. One, 2, 4, and 6 hours after the culture was started, turbidity (OD600) of the culture medium was measured with a spectrophotometer to analyze the affect of the compound (6a) or the compound (7), 50% ethanol, ampicillin on the growth of E. coli cells.
In addition, ampicillin was used as a control of the compound which inhibits the growth.

HeLa cell [2] = test: Cell proliferation inhibiting activity on human cultured cancer cells (Evaluation 2); type: cell-based; conditions: 32 hours; for effect on growth rate of HeLa cells (living cell counts): final concentration 200 μM
Procedure: Every 8 hours after the culture was started, living cell counts were measured with a cell counting kit (DOJINDO LABORATORIES). In addition, staurosporine was used as a control of the compound which inhibits the cell proliferation.

[3] = tested on: Schizosaccharomyces pombe (wild-type strain 972); test: Growth inhibiting activity on Schizosaccharomyces pombe (Evaluation 3); type: cell-based; conditions: final concentration 100 μM, up to 30 hours
Procedure: The compound (6a) or the compound (7) (final concentration 100 μM) or 50% ethanol (final concentration 0.5%) was added to YE medium in which Schizosaccharomyces pombe (wild-type strain 972) was inoculated to carry out shaking culture at 30° C. Six, 12, 18, 24, and 30 hours after the culture was started, turbidity (OD600) of the culture medium was measured with a spectrophotometer to analyze the affect of the compound (6a) or the compound (7), or 50% ethanol on the growth of the Schizosaccharomyces pombe cells.

thale cress = test: Activities on plants: growth of thale cress on agar medium (Evaluation 1, 6); type: in vivo, thale cress (Col-0, wild-type strain); conditions: for plant growth inhibition effect (activity on plant growth) / twisting of root epidermal cells / abnormality in direction of root growth: thale cress Col-0, agar medium, 7 days; for twisting of root epidermal cells / abnormality in direction of root growth: scanned images
Procedure: The test compound (compound (6a)) and DMSO for a control experiment, were added at this stage and blended. Fifty ml each of the medium was dispensed in sterile No. 2 square petri dishes (Eiken Chemical Co., Ltd.) to prepare agar medium. As a plant material, Col-0, which is a wild-type strain of […] used. Seeds, after their surfaces were sterilized, were planted on the agar medium, and vernalized at 4° C. for 16 hours. Growth of the plant was carried out in a growth chamber (SANYO MLR-351) under the conditions of an illuminance of 3 at 23° C. with constant light. The agar medium was allowed to stand upright in the chamber to grow the plant for 7 days. Lids of the petri dishes used for the test were opened, the test results were recorded with a scanner, and with the scanned images, […]

[4] = tested on: Saccharomyces cerevisiae (BY4741 strain); test: Growth inhibiting activity on Saccharomyces cerevisiae (Evaluation 4); type: cell-based; conditions: final concentration 10 μM or 100 μM, up to 24 hours
Procedure: The compound (6a) or the compound (7) (final concentration 10 μM or 100 μM), or 50% ethanol (final concentration 0.05% or 0.5%) was added to YPD medium in which Saccharomyces cerevisiae (BY4741 strain) was inoculated to carry out shaking culture at 30° C. Four, 8, 16, and 24 hours after the culture was started, turbidity (OD600) of the culture medium was measured with a spectrophotometer to analyze the affect of the compound (6a) or the compound (7), or 50% ethanol on the growth of the […] cells.

[5] = final concentration 10 μM or 100 μM, up to 6 hours
[6] = thale cress Col-0, concentration of 1000 μM

Structure (SMILES): Cc1c2oc3c(C)ccc(C(=O)N[C@@H]4C(=O)N[C@H](C(C)C)C(=O)N5CCC[C@H]5C(=O)N(C)CC(=O)N(C)[C@@H](C(C)C)C(=O)O[C@@H]4C)c3nc-2c(C(=O)N[C@@H]2C(=O)N[C@H](C(C)C)C(=O)N3CCC[C@H]3C(=O)N(C)CC(=O)N(C)[C@@H](C(C)C)C(=O)O[C@@H]2C)c(N)c1=O [Actinomycin D] (I: T[dV]P[Sar][NMeV] / II: T[dV]P[Sar][NMeV]; ester I:1-I:C, II:1-II:C; linker I:N-II:N via Actinocin(9to1))
- viability of HeLa cells (relative survival rate) (HeLa cell [1]; final concentration 5 μg/ml): induced apoptosis

Structure (SMILES): COn1cccc1C(=O)O [Compound 6a, 1-Methoxy-1H-pyrrole-2-carboxylic acid]
- E. coli growth (OD600) (E. coli (DH5a strain); [5]): neither the compound (6a) nor the compound (7) inhibits the E. coli growth
- effect on growth rate of HeLa cells (living cell counts) (HeLa cell [2]): no affect at all
- growth of Schizosaccharomyces pombe (OD600) [3]: neither the compound (6a) nor the compound (7) inhibits the growth
- plant growth inhibition effect (activity on plant growth) (thale cress): plant growth inhibition was significantly observed
- twisting of root epidermal cells / abnormality in direction of root growth (thale cress): epidermal cells of the roots were twisted leftward and abnormality in a direction of root growth was observed
- root epidermal cells, observation by stereomicroscope (thale cress; thale cress Col-0, compound added, FIG. 2): epidermal cells of the roots were observed to have been twisted leftward
- growth of Saccharomyces cerevisiae (OD600) [4]: neither the compound (6a) nor the compound (7) inhibits the growth

Structure (SMILES): CCCOn1cccc1C(=O)O [Compound 6d, 1-Propoxy-1H-pyrrole-2-carboxylic acid]
- germination (thale cress; [6]): No germinations were observed

Structure (SMILES): CC(C)On1cccc1C(=O)O [Compound 6e, 1-Isopropoxy-1H-pyrrole-2-carboxylic acid]
- germination (thale cress; [6]): No germinations were observed

Structure (SMILES): CCCCOn1cccc1C(=O)O [Compound 6f, 1-Butoxy-1H-pyrrole-2-carboxylic acid]
- germination (thale cress; thale cress Col-0, concentration of 500 μM): substantially no germination was observed
- germination (thale cress; [6]): no germination was observed

Structure (SMILES): O=C(O)c1cccn1OCc1ccccc1 [Compound 6g, 1-(Benzyloxy)-1H-pyrrole-2-carboxylic acid]
- plant growth inhibition effect (activity on plant growth) (thale cress): a plant growth inhibiting effect was observed even more than when each of the compounds (6d) to (6f)

Structure (SMILES): COn1cccc1C(N)=O [Compound 7, 1-Methoxy-1H-pyrrole-2-carboxamide]
- E. coli growth (OD600) (E. coli (DH5a strain); [5]): neither the compound (6a) nor the compound (7) inhibits the E. coli growth
- effect on growth rate of HeLa cells (living cell counts) (HeLa cell [2]): no affect at all
- growth of Schizosaccharomyces pombe (OD600) [3]: neither the compound (6a) nor the compound (7) inhibits the growth
- twisting of root epidermal cells / abnormality in direction of root growth (thale cress): epidermal cells of the roots were twisted leftward and abnormality in a direction of the root growth was observed
- growth of Saccharomyces cerevisiae (OD600) [4]: neither the compound (6a) nor the compound (7) inhibits the growth

Structure (SMILES): COC(=O)Nc1nc2ccc(C(=O)c3cccs3)cc2[nH]1 [Nocodazole]
- viability of HeLa cells (relative survival rate) (HeLa cell [1]; final concentration 100 ng/ml): induced apoptosis

Structure (SMILES): C#CC(C)(C)NC(=O)c1cc(Cl)cc(Cl)c1 [Propyzamide, reference compound]
- twisting of root epidermal cells / abnormality in direction of root growth (thale cress): abnormality in a direction of the root growth was also observed

Structure (SMILES): CC1(C)S[C@@H]2[C@H](NC(=O)[C@H](N)c3ccccc3)C(=O)N2[C@H]1C(=O)O [ampicillin, reference compound]
- E. coli growth (OD600) (E. coli (DH5a strain); final concentration 50 μg/ml, control): growth inhibition was observed

Structure (SMILES): CN[C@@H]1C[C@H]2O[C@@](C)([C@@H]1OC)n1c3ccccc3c3c4c(c5c6ccccc6n2c5c31)C(=O)NC4 [staurosporine, reference compound]
- effect on HeLa cells (living cell counts) (HeLa cell [2]; final concentration 1 μM, control): induced the apoptosis

— US11685716B2, “Plant growth inhibiting agent, and plant growth inhibiting method using same” (NATIONAL UNIVERSITY CORPORATION KUMAMOTO UNIVERSITY, priority 2017, dated 2023)
